Reference: patent US20240408114A1, “METHODS FOR PREVENTING AND TREATING ACUTE KIDNEY INJURY” (The Johns Hopkins University, priority 2021, published 2024)

How the values were obtained:
kidney T cells [1] = assay: T cells from post-ischemic kidneys, spectral flow cytometry; type: in vivo, mouse
Method: Mice were treated with 1.83 mg/kg of JHU083 or vehicle every other day via intraperitoneal injection and underwent bilateral IRI surgery on day 7 after the initial injection. […] Hollinger et al., 2020. Mice were followed up until 72 h after IRI, and T cells isolated from post-ischemic kidneys were studied (FIG. 14A).
(§1) KMNCs were isolated according to our previously described Percoll density gradient protocol. Ascon et al., 2006. Briefly, decapsulated kidneys were immersed and incubated in collagenase D (2 mg/mL; Sigma-Aldrich) solution for 30 min at 37° C. Samples were strained through 70 µm cell strainer (BD Bioscience, Franklin Lakes, NJ), washed, and resuspended in 40% Percoll (GE Healthcare, Chicago, IL) followed by gentle overlaying onto 80% Percoll. After centrifugation at 1,500 g for 30 min in brake off mode at room temperature, KMNCs were collected from interface between 40% and 80% Percoll. Spleens were strained through 40 µm cell strainer (BD Bioscience) and incubated with ammonium-chloride-potassium lysis buffer (Quality Biological, Gaithersburg, MD) for 3 min. Collected cells were washed and resuspended with Roswell Park Memorial Institute (RPMI) 1640 media (Thermo Fisher Scientific, Waltham, MA) containing 5% fetal bovine serum (FBS, Thermo Fisher Scientific). Cells were counted on hemocytometer using trypan blue exclusion under a microscope.
(§2) Cells were washed once with phosphate buffered saline (PBS) and stained with viability dye Zombie NIR Fixable Viability (BioLegend, San Diego, CA) for 15 min at room temperature. After washing with Cell Staining Buffer (BioLegend), cells were preincubated with anti-CD16/CD32 Fc receptor blocking antibody (S17011E, BioLegend) for 15 min to prevent nonspecific antibody binding. Subsequently, surface staining was performed in 50 μL of BD horizon™ Brilliant Stain buffer and surface staining antibody cocktail for 30 min at 4° C.: Pacific blue anti-CD44 (IM7, BioLegend), BV510 anti-CD8 (53-6.7, BioLegend), BV570 anti-CD45 (30-F11, BioLegend), BV605 anti-CD69 (H1.2F3, BioLegend), BV650 anti-NK1.1 (PK136, BioLegend), BV711 anti-PD1 (29F.1A12, BioLegend), BV785 anti-TCRβ (H57-597, BioLegend), PE-Cy5.5 anti-CD25 (PC61.5, Thermo Fisher Scientific), APC-R700 anti-CD62L (MEL-14, BD Bioscience), and APC-Fire810 anti-CD4 (GK1.5, BioLegend). Cells were fixed and permeabilized with Foxp3/Transcription Factor Staining kit (Thermo Fisher Scientific) for 30 min at room temperature and washed with permeabilization/wash buffer (Thermo Fisher Scientific). Intracellular staining was conducted in 50 μL of permeabilization/wash buffer with intracellular staining antibody cocktail for 45 min at room temperature: BV421 anti-Ki67 (16A8, BioLegend), Alexa Fluor 488 anti-CPT1a (8F6AE9, Abcam, Cambridge, UK), Alexa Fluor 532 anti-VDAC1 (20B12AF2, Abcam), PerCP-efluor 710 anti-FoxP3 (FJK-16S, Thermo Fisher Scientific), PE anti-GLUT1 (EPR3915, Abcam), Alexa Fluor 594 anti-pS6 (D68F8, Cell Signaling, Danvers, MA), PE-Cy5 anti-HKII (EPR20839, Abcam), PE-Cy7 anti-H3K27me3 (C36B11, Cell Signaling), and Alexa Fluor 647 anti-Tomm20 (EPR15581-54, Abcam). After staining, cells were washed with permeabilization/wash buffer then resuspended in Cell Staining Buffer. Samples were analyzed by 4-laser Aurora spectral flow cytometer (Cytek, Fremont, CA).
Glutamine antagonist, JHU083 was synthesized as previously described, Rais et al., 2016, and dissolved in 50 mM […] 4-(2-hydroxyethyl)-1-piperazineethanesulfonic acid (HEPES) buffered 0.9% saline. Aliquot stocks were stored at −80° C. and thawed right before injection. Before the IRI surgery or cisplatin injection, mice were administered 1.83 mg/kg JHU083 (equivalent to 1 mg/kg DON) or vehicle (50 mM HEPES buffered 0.9% saline) every other day via intraperitoneal injection. Following 4 consecutive dosages, mice underwent IRI surgery or cisplatin injection. The last additional dose was given at 24 h after IRI or cisplatin injection. […]

kidney T cells [2] = assay: T cells from post-cisplatin AKI kidneys, spectral flow cytometry; type: in vivo, mouse
Method: Given the significant protective outcomes in ischemic AKI, we subsequently tested the effect of glutamine blockade on a nephrotoxic AKI model, which is another common etiology of clinical AKI. After pretreatment with JHU083 or vehicle, 25 mg/kg of cisplatin was injected intraperitoneally. T cells were isolated and studied after 72 h after cisplatin treatment (FIG. 16A).
as §1, §2
Glutamine antagonist, JHU083 was synthesized as previously described, Rais et al., 2016, and dissolved in 50 mM […] 4-(2-hydroxyethyl)-1-piperazineethanesulfonic acid (HEPES) buffered 0.9% saline. Aliquot stocks were stored at −80° C. and thawed right before injection. Before the IRI surgery or cisplatin injection, mice were administered 1.83 mg/kg JHU083 (equivalent to 1 mg/kg DON) or vehicle (50 mM HEPES buffered 0.9% saline) every other day via intraperitoneal injection. Following 4 consecutive dosages, mice underwent IRI surgery or cisplatin injection. […]

[3] = mouse, in vivo, ip, 1.83 mg/kg
Method: Glutamine antagonist, JHU083 was synthesized as previously described, Rais et al., 2016, and dissolved in 50 mM […] 4-(2-hydroxyethyl)-1-piperazineethanesulfonic acid (HEPES) buffered 0.9% saline. Aliquot stocks were stored at −80° C. and thawed right before injection. Before the IRI surgery or cisplatin injection, mice were administered 1.83 mg/kg JHU083 (equivalent to 1 mg/kg DON) or vehicle (50 mM HEPES buffered 0.9% saline) every other day via intraperitoneal injection. Following 4 consecutive dosages, mice underwent IRI surgery or cisplatin injection. The last additional dose was given at 24 h after IRI or cisplatin injection. This dosage regimen was chosen based on efficiency and toxicity data from a previous study. Hollinger et al., 2020.

[4] = post-ischemic kidneys, vs vehicle
[5] = post-cisplatin AKI kidneys, vehicle 21.4±2.7, P=0.001

## CCOC(=O)[C@H](CCC(=O)C=[N+]=[N-])NC(=O)[C@@H](N)CC(C)C [JHU083]
Kidney T cells [1]; Example 1, FIG. 8, after ischemic AKI, vs vehicle control group
  expression of CD69, CD44, and Ki67 on kidney CD4+ and CD8+ T cells: reduced expression
Kidney T cells [1]; post-ischemic kidneys, vehicle 24.9±2.3, P=0.019
  CD69+ among kidney CD8+ T cells: 17.8±1.4%
Kidney T cells [1]; post-ischemic kidneys, vehicle 29.0±1.6, P<0.001
  CD62L+ among kidney CD4+ T cells: 42.8±2.2
Kidney T cells [1]; post-ischemic kidneys, vehicle 44.9±3.2, P<0.001
  CD62L+ among kidney CD8+ T cells: 63.6±2.8
Kidney T cells [1]; post-ischemic kidneys, vehicle 58.7±2.9, P=0.035
  Ki67+ among kidney CD4+ T cells: 50.6±2.1%
Kidney T cells [1]; post-ischemic kidneys, vehicle 60.6±2.5, P=0.005
  CD69+ among kidney DN T cells: 72.1±2.5%
Kidney T cells [1]; post-ischemic kidneys, vehicle 61.2±4.2, P=0.043
  Ki67+ among kidney CD8+ T cells: 48.4±4.1%
Kidney T cells [1]; post-ischemic kidneys, vehicle 61.4±10.7, P=0.001
  CD44+ among kidney CD8+ T cells: 40.9±11.2%
Kidney T cells [1]; post-ischemic kidneys, vehicle 67.5±1.7, P<0.001
  CD44+ among kidney CD4+ T cells: 56.3±1.9%
Kidney T cells [1]; post-ischemic kidneys, vehicle 78.7±3.0, P=0.001
  Ki67+ among kidney DN T cells: 91.2±1.1%
Kidney T cells [1]; post-ischemic kidneys, vehicle 94.4±2.4, P=0.038
  CD44+ among kidney DN T cells: 96.4±1.2%
Kidney T cells [1]; [4]
  levels of the other metabolic enzymes in kidney T cells: comparable between groups
  proportions of CD4+, CD8+, DN T cells among total T cells and Tregs among CD4+ T cells: comparable between groups
Kidney T cells [1]; post-ischemic kidneys, vs vehicle-treated mice
  pS6 and HKII expression in kidney T cells: enhanced
Kidney T cells [1]; vs vehicle
  number of total T cells in post-ischemic kidneys: reduced
Kidney T cells [2]; cisplatin AKI, FIG. 17C
  CD69 expression in CD4+, CD8+, and DN T cells: reduced
Kidney T cells [2]; [5]
  CD69+ among kidney CD8+ T cells: 9.8±1.5%
  Ki67+ among kidney CD8+ T cells: 9.8±1.5%
Kidney T cells [2]; post-cisplatin AKI kidneys, vehicle 37.0±2.9, P=0.003
  Ki67+ among kidney CD4+ T cells: 25.4±1.8
Kidney T cells [2]; post-cisplatin AKI kidneys, vehicle 37.0±2.9, P=0.014
  CD69+ among kidney CD4+ T cells: 25.4±1.8%
Kidney T cells [2]; post-cisplatin AKI kidneys, vehicle 37.5±3.2
  CD62L+ among kidney CD4+ T cells: 52.5±3.0%
Kidney T cells [2]; post-cisplatin AKI kidneys, vehicle 43.3±3.3, P<0.001
  CD44+ among kidney CD8+ T cells: 26.4±2.3%
Kidney T cells [2]; post-cisplatin AKI kidneys, vehicle 48.9±4.2, P<0.001
  CD62L+ among kidney CD8+ T cells: 76.0±2.3%
Kidney T cells [2]; post-cisplatin AKI kidneys, vehicle 50.2±3.4, P=0.037
  CD44+ among kidney CD4+ T cells: 40.9±2.4%
[3]
  body weight: no significant differences between groups
